In patent US9359358B2, “Cyclohexyl azetidine derivatives as JAK inhibitors” (Incyte Holdings Corporation, priority 2011, dated 2016):
Counter-ions that a name gives are not always drawn.

Assays:
[1] = biological target: T1, human JAK1 (Homo sapiens, UniProt P23458); test: In Vitro JAK Kinase Assay (HTRF, phosphorylation of a biotinylated peptide), JAK1; type: biochemical; conditions: catalytic domain a.a. 837-1142, assay of Example A
T1 construct: human JAK1 (a.a. 837-1142); His tag (N); made in house; host or cells: insect cells (baculovirus)
Method: (§1) The catalytic activity of JAK1, JAK2 or JAK3 was assayed by measuring the phosphorylation of a biotinylated peptide. The phosphorylated peptide was detected by homogenous time resolved fluorescence (HTRF). […] Reactions were carried out at room temperature for 1 hour and then stopped with 20 μL 45 mM EDTA, 300 nM SA-APC, 6 nM Eu-Py20 in assay buffer (Perkin Elmer, Boston, Mass.). Binding to the Europium labeled antibody took place for 40 minutes and HTRF signal was measured on a Fusion plate reader (Perkin Elmer, Boston, Mass.).

[2] = biological target: T2, human JAK2 (Homo sapiens, UniProt O60674); test: In Vitro JAK Kinase Assay (HTRF, phosphorylation of a biotinylated peptide), JAK2; type: biochemical; conditions: assay of Example A
T2 construct: JAK2 (a.a. 828-1132); His tag (N); made in house; host or cells: insect cells (baculovirus)
Method: as §1

T2 sequence (O60674 828-1132): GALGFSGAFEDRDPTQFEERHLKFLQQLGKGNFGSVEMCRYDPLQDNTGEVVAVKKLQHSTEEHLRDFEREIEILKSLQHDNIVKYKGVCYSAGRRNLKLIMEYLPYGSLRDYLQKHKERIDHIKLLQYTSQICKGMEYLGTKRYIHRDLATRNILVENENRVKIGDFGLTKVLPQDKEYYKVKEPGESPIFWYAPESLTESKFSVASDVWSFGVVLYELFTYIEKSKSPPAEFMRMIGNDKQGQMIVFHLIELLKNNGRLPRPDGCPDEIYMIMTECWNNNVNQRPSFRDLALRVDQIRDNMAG
T1 sequence (P23458 849-1154): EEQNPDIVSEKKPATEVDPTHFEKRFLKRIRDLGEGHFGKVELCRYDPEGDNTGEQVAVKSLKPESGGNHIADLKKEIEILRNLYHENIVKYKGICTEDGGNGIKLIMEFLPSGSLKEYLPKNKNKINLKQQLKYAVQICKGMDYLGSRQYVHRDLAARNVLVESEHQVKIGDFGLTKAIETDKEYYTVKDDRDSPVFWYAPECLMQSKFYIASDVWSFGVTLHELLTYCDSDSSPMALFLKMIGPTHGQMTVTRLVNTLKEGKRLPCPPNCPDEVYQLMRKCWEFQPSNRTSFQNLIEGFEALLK

Structure (SMILES): N#CCC1(n2cc(-c3ncnc4[nH]ccc34)cn2)CN([C@H]2CC[C@@H](Oc3cc(Cn4ccnc4)cc(C(F)(F)F)n3)CC2)C1 [Example 99, {1-(cis-4-{[4-(1H-imidazol-1-ylmethyl)-6-(trifluoromethyl)pyridin-2-yl]oxy}cyclohexyl)-3-[4-(7H-pyrrolo[2,3-d]pyrimidin-4-yl)-1H-pyrazol-1-yl]azetidin-3-yl}acetonitrile tetrakis(trifluoroacetate)]
- IC50 ([1]; Table 5): < 10 nM
- JAK2/JAK1 IC50 ratio ([2]; Table 5): ≧10

Structure (SMILES): N#CCC1(n2cc(-c3ncnc4[nH]ccc34)cn2)CN([C@H]2CC[C@@H](Oc3cc(C(=O)N4CC(O)C4)cc(C(F)(F)F)n3)CC2)C1 [Example 89, {1-(cis-4-{[4-[(3-hydroxyazetidin-1-yl)carbonyl]-6-(trifluoromethyl)pyridin-2-yl]oxy}cyclohexyl)-3-[4-(7H-pyrrolo[2,3-d]pyrimidin-4-yl)-1H-pyrazol-1-yl]azetidin-3-yl}acetonitrile bis(trifluoroacetate)]
- IC50 ([1]; Table 5): < 10 nM
- JAK2/JAK1 IC50 ratio ([2]; Table 5): ≧10

Structure (SMILES): CNCc1cc(O[C@H]2CC[C@@H](N3CC(CC#N)(n4cc(-c5ncnc6[nH]ccc56)cn4)C3)CC2)nc(C(F)(F)F)n1 [Example 4, {1-(cis-4-{[6-[(Methylamino)methyl]-2-(trifluoromethyl)pyrimidin-4-yl]oxy}cyclohexyl)-3-[4-(7H-pyrrolo[2,3-d]pyrimidin-4-yl)-1H-pyrazol-1-yl]azetidin-3-yl}acetonitrile tris(trifluoroacetate)]
- IC50 ([1]; Table 4): < 10 nM
- JAK2/JAK1 IC50 ratio ([2]; Table 4): ≧10

Structure (SMILES): N#CCC1(n2cc(-c3ncnc4[nH]ccc34)cn2)CN([C@H]2CC[C@@H](Oc3cc(CN4CCC[C@@H]4CO)cc(C(F)(F)F)n3)CC2)C1.O=C(O)C(F)(F)F.O=C(O)C(F)(F)F.O=C(O)C(F)(F)F (stereo in doubt) [Example 93, {1-(cis-4-{[4-{[(2R)-2-(hydroxymethyl)pyrrolidin-1-yl]methyl}-6-(trifluoromethyl)pyridin-2-yl]oxy}cyclohexyl)-3-[4-(7H-pyrrolo[2,3-d]pyrimidin-4-yl)-1H-pyrazol-1-yl]azetidin-3-yl}acetonitrile tris(trifluoroacetate)]
- IC50 ([1]; Table 5): < 10 nM
- JAK2/JAK1 IC50 ratio ([2]; Table 5): ≧10

Structure (SMILES): N#CCC1(n2cc(-c3ncnc4[nH]ccc34)cn2)CN([C@H]2CC[C@@H](Oc3cc(CNC4CCC4)cc(C(F)(F)F)n3)CC2)C1 [Example 77, {1-(cis-4-{[4-[(cyclobutylamino)methyl]-6-(trifluoromethyl)pyridin-2-yl]oxy}cyclohexyl)-3-[4-(7H-pyrrolo[2,3-d]pyrimidin-4-yl)-1H-pyrazol-1-yl]azetidin-3-yl}acetonitrile tris(trifluoroacetate)]
- IC50 ([1]; Table 5): < 10 nM
- JAK2/JAK1 IC50 ratio ([2]; Table 5): ≧10

Structure (SMILES): COCCNC(=O)c1cc(O[C@H]2CC[C@@H](N3CC(CC#N)(n4cc(-c5ncnc6[nH]ccc56)cn4)C3)CC2)nc(C(F)(F)F)n1 [Example 50, 6-[(cis-4-{3-(cyanomethyl)-3-[4-(7H-pyrrolo[2,3-d]pyrimidin-4-yl)-1H-pyrazol-1-yl]azetidin-1-yl}cyclohexyl)oxy]-N-(2-methoxyethyl)-2-(trifluoromethyl)pyrimidine-4-carboxamide bis(trifluoroacetate)]
- IC50 ([1]; Table 4): < 10 nM
- JAK2/JAK1 IC50 ratio ([2]; Table 4): ≧10

Structure (SMILES): N#CCC1(n2cc(-c3ncnc4[nH]ccc34)cn2)CN([C@H]2CC[C@@H](Oc3cc(CN4CCOCC4)cc(C(F)(F)F)n3)CC2)C1 [Example 92, {1-(cis-4-{[4-(morpholin-4-ylmethyl)-6-(trifluoromethyl)pyridin-2-yl]oxy}cyclohexyl)-3-[4-(7H-pyrrolo[2,3-d]pyrimidin-4-yl)-1H-pyrazol-1-yl]azetidin-3-yl}acetonitrile tris(trifluoroacetate)]
- IC50 ([1]; Table 5): < 10 nM
- JAK2/JAK1 IC50 ratio ([2]; Table 5): ≧10

Structure (SMILES): CN(C)C(=O)c1cc(O[C@H]2CC[C@@H](N3CC(CC#N)(n4cc(-c5ncnc6[nH]ccc56)cn4)C3)CC2)nc(C(F)(F)F)c1 [Example 81, 2-[(cis-4-{3-(cyanomethyl)-3-[4-(7H-pyrrolo[2,3-d]pyrimidin-4-yl)-1H-pyrazol-1-yl]azetidin-1-yl}cyclohexyl)oxy]-N,N-dimethyl-6-(trifluoromethyl)isonicotinamide bis(trifluoroacetate)]
- IC50 ([1]; Table 5): < 10 nM
- JAK2/JAK1 IC50 ratio ([2]; Table 5): ≧10

Structure (SMILES): CN(C(=O)c1cc(O[C@H]2CC[C@@H](N3CC(CC#N)(n4cc(-c5ncnc6[nH]ccc56)cn4)C3)CC2)nc(C(F)(F)F)c1)C1CC1 [Example 87, 2-[(cis-4-{3-(cyanomethyl)-3-[4-(7H-pyrrolo[2,3-d]pyrimidin-4-yl)-1H-pyrazol-1-yl]azetidin-1-yl}cyclohexyl)oxy]-N-cyclopropyl-N-methyl-6-(trifluoromethyl)isonicotinamide bis(trifluoroacetate)]
- IC50 ([1]; Table 5): < 10 nM
- JAK2/JAK1 IC50 ratio ([2]; Table 5): ≧10

Structure (SMILES): CCN(C)Cc1cc(O[C@H]2CC[C@@H](N3CC(CC#N)(n4cc(-c5ncnc6[nH]ccc56)cn4)C3)CC2)nc(C(F)(F)F)n1.O=C(O)C(F)(F)F.O=C(O)C(F)(F)F.O=C(O)C(F)(F)F [Example 8, {1-(cis-4-{[6-{[ethyl(methyl)amino]methyl}-2-(trifluoromethyl)pyrimidin-4-yl]oxy}cyclohexyl)-3-[4-(7H-pyrrolo[2,3-d]pyrimidin-4-yl)-1H-pyrazol-1-yl]azetidin-3-yl}acetonitrile tris(trifluoroacetate)]
- IC50 ([1]; Table 4): < 10 nM
- JAK2/JAK1 IC50 ratio ([2]; Table 4): ≧10

Structure (SMILES): CC(C)CNCc1cc(O[C@H]2CC[C@@H](N3CC(CC#N)(n4cc(-c5ncnc6[nH]ccc56)cn4)C3)CC2)nc(C(F)(F)F)n1 [Example 35, {1-(cis-4-{[6-[(isobutylamino)methyl]-2-(trifluoromethyl)pyrimidin-4-yl]oxy}cyclohexyl)-3-[4-(7H-pyrrolo[2,3-d]pyrimidin-4-yl)-1H-pyrazol-1-yl]azetidin-3-yl}acetonitrile tris(trifluoroacetate)]
- IC50 ([1]; Table 4): < 10 nM

Structure (SMILES): CC(C)(CO)NCc1cc(O[C@H]2CC[C@@H](N3CC(CC#N)(n4cc(-c5ncnc6[nH]ccc56)cn4)C3)CC2)nc(C(F)(F)F)c1 [Example 71, {1-(cis-4-{[4-{[(2-hydroxy-1,1-dimethylethyl)amino]methyl}-6-(trifluoromethyl)pyridin-2-yl]oxy}cyclohexyl)-3-[4-(7H-pyrrolo[2,3-d]pyrimidin-4-yl)-1H-pyrazol-1-yl]azetidin-3-yl}acetonitrile tris(trifluoroacetate) (salt)]
- IC50 ([1]; Table 5): < 10 nM

Structure (SMILES): N#CCC1(n2cc(-c3ncnc4[nH]ccc34)cn2)CN([C@H]2CC[C@@H](Oc3cc(CN4CCC(O)CC4)cc(C(F)(F)F)n3)CC2)C1 [Example 97, {1-(cis-4-{[4-[(4-hydroxypiperidin-1-yl)methyl]-6-(trifluoromethyl)pyridin-2-yl]oxy}cyclohexyl)-3-[4-(7H-pyrrolo[2,3-d]pyrimidin-4-yl)-1H-pyrazol-1-yl]azetidin-3-yl}acetonitrile tris(trifluoroacetate)]
- IC50 ([1]; Table 5): < 10 nM

Structure (SMILES): N#CCC1(n2cc(-c3ncnc4[nH]ccc34)cn2)CN([C@H]2CC[C@@H](Oc3cc(CN4CCCCC4)nc(C(F)(F)F)n3)CC2)C1 [Example 30, {1-(cis-4-{[6-(piperidin-1-ylmethyl)-2-(trifluoromethyl)pyrimidin-4-yl]oxy}cyclohexyl)-3-[4-(7H-pyrrolo[2,3-d]pyrimidin-4-yl)-1H-pyrazol-1-yl]azetidin-3-yl}acetonitrile tris(trifluoroacetate)]
- IC50 ([1]; Table 4): < 10 nM
